# From ChEMBL document CHEMBL2074428, “New alpha(1)-adrenoceptor antagonists derived from the antipsychotic sertindole - carbon-11 labelling and pet examination of brain uptake in the cynomolgus monkey” (Nucl Med Biol, 2004)
# Molecular target: ATP-dependent translocase ABCB1 (Homo sapiens, UniProt P08183)
# Test: TP_TRANSPORTER: transepithelial transport in Caco2 cells
# Type: functional, cell-based
# Conditions: caco-2
# Chain of ATP-dependent translocase ABCB1 (P08183 whole entry): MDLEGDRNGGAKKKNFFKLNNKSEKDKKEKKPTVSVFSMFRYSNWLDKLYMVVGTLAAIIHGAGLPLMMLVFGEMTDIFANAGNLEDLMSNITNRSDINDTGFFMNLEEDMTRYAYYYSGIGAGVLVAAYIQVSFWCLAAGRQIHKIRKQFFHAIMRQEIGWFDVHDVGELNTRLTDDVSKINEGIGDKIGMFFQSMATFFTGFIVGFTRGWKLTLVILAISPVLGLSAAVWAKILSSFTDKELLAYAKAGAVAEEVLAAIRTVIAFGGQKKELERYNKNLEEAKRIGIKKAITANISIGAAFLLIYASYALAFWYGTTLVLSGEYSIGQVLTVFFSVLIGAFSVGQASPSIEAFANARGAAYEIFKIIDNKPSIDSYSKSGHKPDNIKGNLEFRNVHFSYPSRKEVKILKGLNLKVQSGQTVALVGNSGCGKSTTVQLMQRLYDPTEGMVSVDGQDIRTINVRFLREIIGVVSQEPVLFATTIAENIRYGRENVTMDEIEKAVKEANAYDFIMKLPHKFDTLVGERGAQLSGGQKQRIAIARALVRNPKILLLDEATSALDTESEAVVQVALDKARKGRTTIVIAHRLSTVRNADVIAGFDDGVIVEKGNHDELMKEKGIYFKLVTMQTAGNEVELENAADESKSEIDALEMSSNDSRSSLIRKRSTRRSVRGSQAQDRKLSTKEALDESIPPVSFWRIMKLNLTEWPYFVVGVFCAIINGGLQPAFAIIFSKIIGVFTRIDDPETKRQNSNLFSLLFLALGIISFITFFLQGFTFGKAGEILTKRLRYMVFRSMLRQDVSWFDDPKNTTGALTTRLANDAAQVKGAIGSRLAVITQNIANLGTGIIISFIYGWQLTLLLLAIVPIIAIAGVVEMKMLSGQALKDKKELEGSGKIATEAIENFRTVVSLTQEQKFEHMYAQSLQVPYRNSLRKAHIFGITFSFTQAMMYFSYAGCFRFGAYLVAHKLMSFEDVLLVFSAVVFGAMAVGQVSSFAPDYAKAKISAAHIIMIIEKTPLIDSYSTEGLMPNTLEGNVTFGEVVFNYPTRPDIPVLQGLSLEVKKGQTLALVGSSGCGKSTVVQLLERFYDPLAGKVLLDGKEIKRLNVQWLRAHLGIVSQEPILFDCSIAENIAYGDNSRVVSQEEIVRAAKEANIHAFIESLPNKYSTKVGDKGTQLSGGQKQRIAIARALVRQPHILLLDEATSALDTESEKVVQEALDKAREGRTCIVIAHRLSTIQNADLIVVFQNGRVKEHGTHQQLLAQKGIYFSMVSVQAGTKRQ
row,Activity,SMILES
1,substrate [+],[11CH3]n1cc(-c2ccc3c(c2)c(C2CCN(CCN4CCNC4=O)CC2)cn3-c2ccc(F)cc2)nn1
2,substrate [+],[11CH3]n1nnc(-c2ccc3c(c2)c(C2CCN(CCN4CCNC4=O)CC2)cn3-c2ccc(F)cc2)n1
